# Measured values published in PubChem BioAssay (NCI).
#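 1) Cells in 96-well plates. 2) Compound, 48 h, 5 concentrations. 3) Linear interpolation between surrounding doses. 4) Unreached endpoint = highest concentration. The concentration for 50% growth inhibition is given as GI50. TGI: concentration producing complete growth inhibition.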
# Columns and labels:
# Test in all cases: growth of human tumour cells (NCI), 48 h
# SK-MEL-5 melanoma = system: SK-MEL-5 melanoma
# NCI/ADR-RES ovarian = system: NCI/ADR-RES ovarian
# RXF 393 renal = system: RXF 393 renal
# OVCAR-4 ovarian = system: OVCAR-4 ovarian
# MDA-MB-435 = system: MDA-MB-435
# U251 CNS = system: U251 CNS
# HL-60(TB) leukemia = system: HL-60(TB) leukemia
# OVCAR-5 ovarian = system: OVCAR-5 ovarian
# HT29 colon = system: HT29 colon
# SF-295 CNS = system: SF-295 CNS
# BT-549 breast = system: BT-549 breast
# TK-10 renal = system: TK-10 renal
# OVCAR-8 ovarian = system: OVCAR-8 ovarian
# SF-539 CNS = system: SF-539 CNS
# IGROV1 ovarian = system: IGROV1 ovarian
# CAKI-1 renal = system: CAKI-1 renal
# HS 578T breast = system: HS 578T breast
# KM12 colon = system: KM12 colon
# CCRF-CEM leukemia = system: CCRF-CEM leukemia
# PC-3 prostate = system: PC-3 prostate
# SNB-75 CNS = system: SNB-75 CNS
# A549 NSCLC = system: A549 NSCLC
# OVCAR-3 ovarian = system: OVCAR-3 ovarian
# UO-31 renal = system: UO-31 renal
# MOLT-4 leukemia = system: MOLT-4 leukemia
# RPMI-8226 leukemia = system: RPMI-8226 leukemia
# SK-OV-3 ovarian = system: SK-OV-3 ovarian
# HCC-2998 colon = system: HCC-2998 colon
# NCI-H460 lung = system: NCI-H460 lung
# SN12C renal = system: SN12C renal
# M14 melanoma = system: M14 melanoma
# EKVX NSCLC = system: EKVX NSCLC
# K-562 leukemia = system: K-562 leukemia
# LOX IMVI melanoma = system: LOX IMVI melanoma
# HCT-116 colon = system: HCT-116 colon
# MDA-MB-231 breast = system: MDA-MB-231 breast
# 786-0 renal = system: 786-0 renal
# NCI-H23 lung = system: NCI-H23 lung
# SK-MEL-28 melanoma = system: SK-MEL-28 melanoma
# SR leukemia = system: SR leukemia
# SF-268 CNS = system: SF-268 CNS
# MALME-3M melanoma = system: MALME-3M melanoma
# NCI-H522 lung = system: NCI-H522 lung
# COLO 205 colon = system: COLO 205 colon
# DU-145 prostate = system: DU-145 prostate
# HOP-92 NSCLC = system: HOP-92 NSCLC
# NCI-H226 lung = system: NCI-H226 lung
# SW-620 colon = system: SW-620 colon
# UACC-257 melanoma = system: UACC-257 melanoma
# SK-MEL-2 melanoma = system: SK-MEL-2 melanoma
# HCT-15 colon = system: HCT-15 colon
# HOP-62 NSCLC = system: HOP-62 NSCLC
# ACHN renal = system: ACHN renal
# SNB-19 CNS = system: SNB-19 CNS
# MCF7 breast = system: MCF7 breast
# A498 renal = system: A498 renal
# UACC-62 melanoma = system: UACC-62 melanoma
compound,measurement,setting,value
H-HIIKKIRTWYRKAWHVLGKV-NH2,GI50,SK-MEL-5 melanoma,3.94 µM
same,TGI,SK-MEL-5 melanoma,19.5 µM
same,GI50,NCI/ADR-RES ovarian,5.85 µM
same,TGI,NCI/ADR-RES ovarian,28.5 µM
same,GI50,RXF 393 renal,4.23 µM
same,TGI,RXF 393 renal,25.1 µM
same,GI50,OVCAR-4 ovarian,12.8 µM
same,TGI,OVCAR-4 ovarian,47.5 µM
same,GI50,MDA-MB-435,5.15 µM
same,TGI,MDA-MB-435,65.9 µM
same,GI50,U251 CNS,7.17 µM
same,TGI,U251 CNS,> 100 µM
same,GI50,HL-60(TB) leukemia,4.29 µM
same,TGI,HL-60(TB) leukemia,23.3 µM
same,GI50,OVCAR-5 ovarian,6.22 µM
same,TGI,OVCAR-5 ovarian,20.5 µM
same,GI50,HT29 colon,14.8 µM
same,TGI,HT29 colon,> 100 µM
same,GI50,SF-295 CNS,4.8 µM
same,TGI,SF-295 CNS,22.8 µM
same,GI50,BT-549 breast,12.8 µM
same,TGI,BT-549 breast,32.1 µM
same,GI50,TK-10 renal,3.24 µM
same,TGI,TK-10 renal,15.6 µM
same,GI50,OVCAR-8 ovarian,4.74 µM
same,TGI,OVCAR-8 ovarian,> 100 µM
same,GI50,SF-539 CNS,2.14 µM
same,TGI,SF-539 CNS,5.31 µM
same,GI50,IGROV1 ovarian,4.32 µM
same,TGI,IGROV1 ovarian,28.3 µM
same,GI50,CAKI-1 renal,3.32 µM
same,TGI,CAKI-1 renal,18.3 µM
same,GI50,HS 578T breast,3.56 µM
same,TGI,HS 578T breast,18.7 µM
same,GI50,KM12 colon,2.49 µM
same,TGI,KM12 colon,6.58 µM
same,GI50,CCRF-CEM leukemia,3.71 µM
same,TGI,CCRF-CEM leukemia,> 100 µM
same,GI50,PC-3 prostate,2.79 µM
same,TGI,PC-3 prostate,9.74 µM
same,GI50,SNB-75 CNS,11.9 µM
same,TGI,SNB-75 CNS,30.4 µM
same,GI50,A549 NSCLC,5.51 µM
same,TGI,A549 NSCLC,> 100 µM
same,GI50,OVCAR-3 ovarian,10.4 µM
same,TGI,OVCAR-3 ovarian,39.3 µM
same,GI50,UO-31 renal,18.6 µM
same,TGI,UO-31 renal,36.5 µM
same,GI50,MOLT-4 leukemia,14.2 µM
same,TGI,MOLT-4 leukemia,57.2 µM
same,GI50,RPMI-8226 leukemia,8.62 µM
same,TGI,RPMI-8226 leukemia,45 µM
same,GI50,SK-OV-3 ovarian,6.36 µM
same,TGI,SK-OV-3 ovarian,22.2 µM
same,GI50,HCC-2998 colon,3.88 µM
same,TGI,HCC-2998 colon,31.2 µM
same,GI50,NCI-H460 lung,3.34 µM
same,TGI,NCI-H460 lung,92.4 µM
same,GI50,SN12C renal,2.96 µM
same,TGI,SN12C renal,13 µM
same,GI50,M14 melanoma,4.17 µM
same,TGI,M14 melanoma,22.8 µM
same,GI50,EKVX NSCLC,2.37 µM
same,TGI,EKVX NSCLC,6.73 µM
same,GI50,K-562 leukemia,6.56 µM
same,TGI,K-562 leukemia,> 100 µM
same,GI50,LOX IMVI melanoma,21.7 µM
same,TGI,LOX IMVI melanoma,82.3 µM
same,GI50,HCT-116 colon,17.5 µM
same,TGI,HCT-116 colon,42 µM
same,GI50,MDA-MB-231 breast,6.47 µM
same,TGI,MDA-MB-231 breast,22.3 µM
same,GI50,786-0 renal,3.37 µM
same,TGI,786-0 renal,16.6 µM
same,GI50,NCI-H23 lung,4.94 µM
same,TGI,NCI-H23 lung,31.1 µM
same,GI50,SK-MEL-28 melanoma,2.61 µM
same,TGI,SK-MEL-28 melanoma,7.66 µM
same,GI50,SR leukemia,7.13 µM
same,TGI,SR leukemia,87.8 µM
same,GI50,SF-268 CNS,3.43 µM
same,TGI,SF-268 CNS,19.8 µM
same,GI50,MALME-3M melanoma,2.29 µM
same,TGI,MALME-3M melanoma,5.25 µM
same,GI50,NCI-H522 lung,11.1 µM
same,TGI,NCI-H522 lung,63.3 µM
same,GI50,COLO 205 colon,2.11 µM
same,TGI,COLO 205 colon,4.92 µM
same,GI50,DU-145 prostate,4.26 µM
same,TGI,DU-145 prostate,15.3 µM
same,GI50,HOP-92 NSCLC,2.11 µM
same,TGI,HOP-92 NSCLC,6.75 µM
same,GI50,NCI-H226 lung,4.15 µM
same,TGI,NCI-H226 lung,39.2 µM
same,GI50,SW-620 colon,9.53 µM
same,TGI,SW-620 colon,> 100 µM
same,GI50,UACC-257 melanoma,8.48 µM
same,TGI,UACC-257 melanoma,59.6 µM
same,GI50,SK-MEL-2 melanoma,5.31 µM
same,TGI,SK-MEL-2 melanoma,28.2 µM
same,GI50,HCT-15 colon,4.24 µM
same,TGI,HCT-15 colon,64.7 µM
same,GI50,HOP-62 NSCLC,4.59 µM
same,TGI,HOP-62 NSCLC,> 100 µM
same,GI50,ACHN renal,13.2 µM
same,TGI,ACHN renal,28.6 µM
same,GI50,SNB-19 CNS,18.3 µM
same,TGI,SNB-19 CNS,62 µM
same,GI50,MCF7 breast,2.05 µM
same,TGI,MCF7 breast,4.58 µM
COc1cc2c(cc1OC)-c1c(oc3cc(OC4OC(CO)C(O)C(O)C4O)c(OC)cc3c1=O)C(O)O2 (centres undefined),TGI,SK-MEL-5 melanoma,> 100 µM
same,TGI,NCI/ADR-RES ovarian,> 100 µM
same,TGI,RXF 393 renal,> 100 µM
same,TGI,OVCAR-4 ovarian,> 100 µM
same,TGI,MDA-MB-435,> 100 µM
same,TGI,U251 CNS,> 100 µM
same,TGI,HL-60(TB) leukemia,> 100 µM
same,TGI,OVCAR-5 ovarian,> 100 µM
same,TGI,HT29 colon,> 100 µM
same,TGI,SF-295 CNS,> 100 µM
same,TGI,BT-549 breast,> 100 µM
same,TGI,TK-10 renal,> 100 µM
same,TGI,OVCAR-8 ovarian,> 100 µM
same,TGI,SF-539 CNS,> 100 µM
same,TGI,IGROV1 ovarian,> 100 µM
same,TGI,CAKI-1 renal,> 100 µM
same,TGI,HS 578T breast,> 100 µM
same,TGI,KM12 colon,> 100 µM
same,TGI,CCRF-CEM leukemia,> 100 µM
same,TGI,PC-3 prostate,> 100 µM
same,TGI,SNB-75 CNS,> 100 µM
same,TGI,A549 NSCLC,> 100 µM
same,TGI,OVCAR-3 ovarian,> 100 µM
same,TGI,UO-31 renal,> 100 µM
same,TGI,RPMI-8226 leukemia,> 100 µM
same,TGI,SK-OV-3 ovarian,> 100 µM
same,TGI,HCC-2998 colon,> 100 µM
same,TGI,NCI-H460 lung,> 100 µM
same,TGI,SN12C renal,> 100 µM
same,TGI,M14 melanoma,> 100 µM
same,TGI,EKVX NSCLC,> 100 µM
same,TGI,K-562 leukemia,> 100 µM
same,TGI,A498 renal,> 100 µM
same,TGI,LOX IMVI melanoma,> 100 µM
same,TGI,HCT-116 colon,> 100 µM
same,TGI,MDA-MB-231 breast,> 100 µM
same,TGI,786-0 renal,> 100 µM
same,TGI,NCI-H23 lung,> 100 µM
same,TGI,SK-MEL-28 melanoma,> 100 µM
same,TGI,SF-268 CNS,> 100 µM
same,TGI,MALME-3M melanoma,> 100 µM
same,TGI,NCI-H522 lung,> 100 µM
same,TGI,COLO 205 colon,> 100 µM
same,TGI,DU-145 prostate,> 100 µM
same,TGI,HOP-92 NSCLC,> 100 µM
same,TGI,UACC-62 melanoma,> 100 µM
same,TGI,NCI-H226 lung,> 100 µM
same,TGI,SW-620 colon,> 100 µM
same,TGI,UACC-257 melanoma,> 100 µM
same,TGI,SK-MEL-2 melanoma,> 100 µM
same,TGI,HCT-15 colon,> 100 µM
same,TGI,HOP-62 NSCLC,> 100 µM
same,TGI,ACHN renal,> 100 µM
same,TGI,SNB-19 CNS,> 100 µM
